Calls of active or inactive are those of the source.
How the values were obtained:
[1] = molecular target: T1, Neuropeptide Y receptor type 1 (Homo sapiens, UniProt P25929); type: functional;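 note: HEK293 cells with a CNG channel challenged with NPY then isoproterenol; potency as antagonist that reverses NPY suppression of cAMP signal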
T1 sequence (P25929 whole entry): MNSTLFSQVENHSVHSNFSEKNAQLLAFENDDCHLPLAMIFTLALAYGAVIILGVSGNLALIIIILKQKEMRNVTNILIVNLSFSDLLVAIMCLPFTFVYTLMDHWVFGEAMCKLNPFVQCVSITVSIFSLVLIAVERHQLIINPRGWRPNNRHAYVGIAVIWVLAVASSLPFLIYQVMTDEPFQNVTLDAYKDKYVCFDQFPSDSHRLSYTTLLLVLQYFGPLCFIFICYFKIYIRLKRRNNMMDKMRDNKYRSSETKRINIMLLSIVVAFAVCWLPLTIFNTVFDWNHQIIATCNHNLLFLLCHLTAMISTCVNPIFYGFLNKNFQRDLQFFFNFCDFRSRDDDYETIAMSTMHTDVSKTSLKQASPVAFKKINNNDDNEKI

[2] = molecular target: T2, Neuropeptide Y receptor type 2 (Homo sapiens, UniProt P49146); type: functional, cell-based;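 note: HEK293 cells expressing the receptor and a CNG channel; stimulus was NPY near EC95 followed by isoproterenol to raise cAMP; antagonist potency measured as restoring cAMP signal that NPY suppresses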
T2 sequence (P49146 whole entry): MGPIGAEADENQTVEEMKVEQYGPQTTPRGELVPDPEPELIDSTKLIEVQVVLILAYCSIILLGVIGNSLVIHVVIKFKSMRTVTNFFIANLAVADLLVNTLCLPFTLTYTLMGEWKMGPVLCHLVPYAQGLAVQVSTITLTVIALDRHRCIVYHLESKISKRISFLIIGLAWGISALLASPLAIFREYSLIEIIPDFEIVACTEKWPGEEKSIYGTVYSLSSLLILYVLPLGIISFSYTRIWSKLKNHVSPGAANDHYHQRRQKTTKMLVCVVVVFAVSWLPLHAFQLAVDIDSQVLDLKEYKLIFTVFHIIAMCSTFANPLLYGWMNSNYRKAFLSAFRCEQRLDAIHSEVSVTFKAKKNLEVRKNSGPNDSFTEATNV

[3] = molecular target: T1, Neuropeptide Y receptor type 1; experiment: NPY-Y1 receptor antagonist potency, dose response, cell-based (AID 1277); type: functional
[4] = molecular target: T2, Neuropeptide Y receptor type 2; experiment: NPY-Y2 antagonist potency, selectivity check, dose response, counter-screen for NPY-Y1 antagonist project, cell-based (AID 1278); type: functional
[5] = molecular target: Sphingosine 1-phosphate receptor 1 (Homo sapiens, UniProt P21453); type: functional;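 note: Tango beta-arrestin reporter U2OS cells stimulated with S1P near its EC80; inhibitor potency meaning antagonism of receptor activation by the natural agonist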
Chain of Sphingosine 1-phosphate receptor 1 (P21453 whole entry): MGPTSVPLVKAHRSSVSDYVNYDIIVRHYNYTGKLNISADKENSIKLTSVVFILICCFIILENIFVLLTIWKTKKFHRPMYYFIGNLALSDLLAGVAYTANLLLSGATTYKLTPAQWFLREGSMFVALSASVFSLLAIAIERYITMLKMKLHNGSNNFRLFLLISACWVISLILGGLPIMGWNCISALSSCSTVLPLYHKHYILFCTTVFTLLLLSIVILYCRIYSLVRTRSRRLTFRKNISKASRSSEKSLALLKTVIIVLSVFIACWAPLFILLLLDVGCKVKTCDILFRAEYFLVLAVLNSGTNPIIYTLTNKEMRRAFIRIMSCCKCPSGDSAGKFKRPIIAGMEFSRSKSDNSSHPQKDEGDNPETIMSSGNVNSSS

[6] = molecular target: T3, Sphingosine 1-phosphate receptor 4 (Homo sapiens, UniProt O95977); experiment: Fluorescence dose response cell-based high throughput screening assay for antagonists of the Sphingosine 1-Phosphate Receptor 4 (S1P4). [Related pubchem assays: 1524 (Confirmation in triplicates.), 1510 (Primary screen.)]; type: functional
T3 sequence (O95977 whole entry): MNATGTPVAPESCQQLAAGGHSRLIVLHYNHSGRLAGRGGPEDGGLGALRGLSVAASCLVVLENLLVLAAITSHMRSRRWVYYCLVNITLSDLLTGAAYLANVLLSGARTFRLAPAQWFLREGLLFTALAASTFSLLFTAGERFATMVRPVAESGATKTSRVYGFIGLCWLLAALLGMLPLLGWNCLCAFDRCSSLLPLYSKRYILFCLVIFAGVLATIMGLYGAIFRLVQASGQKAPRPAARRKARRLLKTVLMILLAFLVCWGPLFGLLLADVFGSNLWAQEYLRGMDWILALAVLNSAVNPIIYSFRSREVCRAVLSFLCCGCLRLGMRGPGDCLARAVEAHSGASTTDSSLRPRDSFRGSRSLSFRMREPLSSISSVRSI

Protein RecA = molecular target: T4, Protein RecA (Mycobacterium tuberculosis, UniProt P9WHJ3); experiment: Fluorescence Cell-Free Homogeneous Dose Retest to Identify Inhibitors of RecA-Intein Splicing Activity. [Related pubchem assays (depositor defined):AID2097, AID2223, AID489010, AID492950]; type: functional
T4 sequence (P9WHJ3 whole entry): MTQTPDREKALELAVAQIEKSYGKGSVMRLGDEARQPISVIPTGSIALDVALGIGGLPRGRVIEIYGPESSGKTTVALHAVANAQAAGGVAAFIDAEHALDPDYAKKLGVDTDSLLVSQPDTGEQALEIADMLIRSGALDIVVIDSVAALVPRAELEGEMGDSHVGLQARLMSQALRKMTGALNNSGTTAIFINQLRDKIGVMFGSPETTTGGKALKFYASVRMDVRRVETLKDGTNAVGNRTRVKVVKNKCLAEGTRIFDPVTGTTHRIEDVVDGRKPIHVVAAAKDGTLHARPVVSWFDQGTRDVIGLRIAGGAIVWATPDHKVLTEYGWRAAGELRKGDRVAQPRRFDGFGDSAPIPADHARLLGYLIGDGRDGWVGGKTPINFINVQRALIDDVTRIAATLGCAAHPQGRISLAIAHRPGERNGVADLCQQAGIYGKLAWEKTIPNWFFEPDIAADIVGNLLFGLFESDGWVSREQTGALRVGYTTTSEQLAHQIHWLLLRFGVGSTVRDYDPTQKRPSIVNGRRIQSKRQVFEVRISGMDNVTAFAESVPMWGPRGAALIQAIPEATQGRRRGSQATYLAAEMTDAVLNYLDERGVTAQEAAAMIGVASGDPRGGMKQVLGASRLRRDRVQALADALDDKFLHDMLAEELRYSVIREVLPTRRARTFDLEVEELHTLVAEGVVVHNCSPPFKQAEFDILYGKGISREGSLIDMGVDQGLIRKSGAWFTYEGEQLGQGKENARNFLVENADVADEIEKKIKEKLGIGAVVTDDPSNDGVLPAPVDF

[7] = molecular target: T5, Replicative DNA helicase DnaB (Mycobacterium tuberculosis, UniProt P9WMR3); experiment: DnaB intein splicing inhibitors, dose response, biochemical, cell-free fluorescence (AID 449749); type: functional
T5 sequence (P9WMR3 whole entry): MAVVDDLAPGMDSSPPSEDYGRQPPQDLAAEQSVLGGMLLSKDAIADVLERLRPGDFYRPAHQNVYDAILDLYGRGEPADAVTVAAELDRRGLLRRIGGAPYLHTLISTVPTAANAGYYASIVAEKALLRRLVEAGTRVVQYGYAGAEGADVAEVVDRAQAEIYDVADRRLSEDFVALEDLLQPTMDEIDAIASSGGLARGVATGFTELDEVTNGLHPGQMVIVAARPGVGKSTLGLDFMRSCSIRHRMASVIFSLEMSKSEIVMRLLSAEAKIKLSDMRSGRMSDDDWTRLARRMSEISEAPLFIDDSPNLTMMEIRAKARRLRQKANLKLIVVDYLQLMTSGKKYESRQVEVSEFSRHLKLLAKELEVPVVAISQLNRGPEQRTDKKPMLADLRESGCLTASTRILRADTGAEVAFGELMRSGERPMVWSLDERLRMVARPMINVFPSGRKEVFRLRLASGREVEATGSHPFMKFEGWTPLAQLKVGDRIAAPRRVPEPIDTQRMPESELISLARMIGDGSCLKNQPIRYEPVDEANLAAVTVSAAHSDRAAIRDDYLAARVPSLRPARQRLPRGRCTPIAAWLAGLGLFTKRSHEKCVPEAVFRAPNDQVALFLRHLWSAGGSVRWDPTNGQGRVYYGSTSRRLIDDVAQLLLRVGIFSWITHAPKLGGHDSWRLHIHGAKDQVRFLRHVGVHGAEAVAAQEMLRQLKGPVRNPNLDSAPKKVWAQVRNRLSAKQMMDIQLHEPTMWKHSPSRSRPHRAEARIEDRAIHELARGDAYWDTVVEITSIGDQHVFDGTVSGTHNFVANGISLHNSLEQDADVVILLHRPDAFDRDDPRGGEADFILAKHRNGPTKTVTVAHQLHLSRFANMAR

[8] = molecular target: T3, Sphingosine 1-phosphate receptor 4; experiment: Late stage fluorescence dose response cell-based screening assay for antagonists of the Sphingosine 1-Phosphate Receptor 4 (S1P4). [Related pubchem assays: 1524 (Confirmation screen (S1P4 antagonists).), 1510 (Primary screen (S1P4 antagonists).), 1853 (Summary AID (S1P4 antagonists).), 1692 (Dose response screen (S1P4 antagonists).)]; type: functional
[9] = inhibitors of PGC1a acetylation in cells, dose response, cell-based, cherry-picked samples (AID 720514); type: functional;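 note: potency may reflect raised or lowered acetylation signal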
[10] = molecular target: Sphingosine 1-phosphate receptor 2 (Homo sapiens, UniProt O95136); experiment: Dose Response Cell Based Assay for Antagonists of the S1P2 Receptor. [Related pubchem assays: 856, 736 ]; type: functional
Chain of Sphingosine 1-phosphate receptor 2 (O95136 whole entry, the tested form may be a part): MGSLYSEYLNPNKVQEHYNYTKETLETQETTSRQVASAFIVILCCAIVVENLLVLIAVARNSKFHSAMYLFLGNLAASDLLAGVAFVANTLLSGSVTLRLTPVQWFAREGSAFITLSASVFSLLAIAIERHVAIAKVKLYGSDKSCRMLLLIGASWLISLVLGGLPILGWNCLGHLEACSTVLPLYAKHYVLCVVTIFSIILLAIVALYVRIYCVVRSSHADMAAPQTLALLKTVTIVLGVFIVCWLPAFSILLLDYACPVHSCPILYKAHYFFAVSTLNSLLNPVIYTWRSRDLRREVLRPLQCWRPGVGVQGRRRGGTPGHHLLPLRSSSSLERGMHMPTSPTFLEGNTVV

[11] = molecular target: Photoreceptor-specific nuclear receptor (Homo sapiens, UniProt Q9Y5X4); type: functional, cell-based;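 note: CHO-S cells with Gal4-NCOR and VP16-NR2E3 two-hybrid luciferase reporter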
Chain of Photoreceptor-specific nuclear receptor (Q9Y5X4 whole entry, the tested form may be a part): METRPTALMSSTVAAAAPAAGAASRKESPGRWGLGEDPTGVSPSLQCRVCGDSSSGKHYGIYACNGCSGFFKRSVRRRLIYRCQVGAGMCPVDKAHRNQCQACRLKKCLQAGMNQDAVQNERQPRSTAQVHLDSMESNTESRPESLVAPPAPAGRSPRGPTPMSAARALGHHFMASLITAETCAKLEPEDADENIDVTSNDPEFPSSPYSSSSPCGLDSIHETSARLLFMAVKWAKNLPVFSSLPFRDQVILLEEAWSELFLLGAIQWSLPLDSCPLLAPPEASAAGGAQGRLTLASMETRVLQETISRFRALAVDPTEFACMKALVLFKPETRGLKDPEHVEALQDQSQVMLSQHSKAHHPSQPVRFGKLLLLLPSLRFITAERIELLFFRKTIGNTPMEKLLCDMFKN

[12] = molecular target: T6, Corticotropin-releasing factor receptor 2/Corticotropin-releasing factor-binding protein (Homo sapiens, UniProt P24387+Q13324); experiment: Dose Response confirmation of uHTS hits for small molecule antagonists of the CRF-binding protein and CRF-R2 receptor complex.; type: functional; conditions: read-out: IC50_Mean
T6 sequence (Q13324 whole entry): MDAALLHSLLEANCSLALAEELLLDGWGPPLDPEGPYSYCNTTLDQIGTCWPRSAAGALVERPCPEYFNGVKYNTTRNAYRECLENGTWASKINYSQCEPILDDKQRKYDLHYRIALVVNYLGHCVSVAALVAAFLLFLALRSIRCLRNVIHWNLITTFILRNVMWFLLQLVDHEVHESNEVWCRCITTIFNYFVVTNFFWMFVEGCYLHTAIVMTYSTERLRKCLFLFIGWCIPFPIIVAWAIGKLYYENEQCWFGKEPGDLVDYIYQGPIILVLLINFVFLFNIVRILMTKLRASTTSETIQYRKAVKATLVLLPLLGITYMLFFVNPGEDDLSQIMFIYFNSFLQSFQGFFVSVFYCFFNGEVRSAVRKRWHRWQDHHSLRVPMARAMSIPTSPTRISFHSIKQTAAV
T6 sequence (P24387 whole entry): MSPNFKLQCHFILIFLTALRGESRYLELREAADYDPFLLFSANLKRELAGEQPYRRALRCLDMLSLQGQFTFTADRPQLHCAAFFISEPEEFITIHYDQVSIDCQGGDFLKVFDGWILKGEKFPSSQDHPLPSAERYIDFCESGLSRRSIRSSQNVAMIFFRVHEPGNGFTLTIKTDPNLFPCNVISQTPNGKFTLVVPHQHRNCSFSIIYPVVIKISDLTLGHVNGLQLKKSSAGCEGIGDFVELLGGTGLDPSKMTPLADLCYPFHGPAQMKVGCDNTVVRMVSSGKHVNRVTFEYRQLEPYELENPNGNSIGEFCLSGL

[13] = molecular target: Induced myeloid leukemia cell differentiation protein Mcl-1 (Homo sapiens, UniProt Q07820); type: functional
Chain of Induced myeloid leukemia cell differentiation protein Mcl-1 (Q07820 whole entry, the tested form may be a part): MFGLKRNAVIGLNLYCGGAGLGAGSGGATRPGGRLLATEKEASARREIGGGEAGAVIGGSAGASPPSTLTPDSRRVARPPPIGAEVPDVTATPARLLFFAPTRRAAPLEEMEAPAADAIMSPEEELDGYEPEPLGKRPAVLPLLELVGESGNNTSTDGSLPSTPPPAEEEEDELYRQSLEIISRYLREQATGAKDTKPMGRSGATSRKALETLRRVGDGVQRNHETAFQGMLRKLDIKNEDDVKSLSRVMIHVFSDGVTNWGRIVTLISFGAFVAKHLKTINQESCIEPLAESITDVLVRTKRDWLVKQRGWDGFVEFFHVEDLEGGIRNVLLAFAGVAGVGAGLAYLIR

[14] = molecular target: T7, Sentrin-specific protease 1 (Homo sapiens, UniProt Q9P0U3); experiment: Dose response confirmation of small molecule inhibitors of the catalytic domain of the SUMO protease, SENP1 in a FRET assay.; type: functional; conditions: read-out: IC50_Mean
T7 sequence (Q9P0U3 whole entry): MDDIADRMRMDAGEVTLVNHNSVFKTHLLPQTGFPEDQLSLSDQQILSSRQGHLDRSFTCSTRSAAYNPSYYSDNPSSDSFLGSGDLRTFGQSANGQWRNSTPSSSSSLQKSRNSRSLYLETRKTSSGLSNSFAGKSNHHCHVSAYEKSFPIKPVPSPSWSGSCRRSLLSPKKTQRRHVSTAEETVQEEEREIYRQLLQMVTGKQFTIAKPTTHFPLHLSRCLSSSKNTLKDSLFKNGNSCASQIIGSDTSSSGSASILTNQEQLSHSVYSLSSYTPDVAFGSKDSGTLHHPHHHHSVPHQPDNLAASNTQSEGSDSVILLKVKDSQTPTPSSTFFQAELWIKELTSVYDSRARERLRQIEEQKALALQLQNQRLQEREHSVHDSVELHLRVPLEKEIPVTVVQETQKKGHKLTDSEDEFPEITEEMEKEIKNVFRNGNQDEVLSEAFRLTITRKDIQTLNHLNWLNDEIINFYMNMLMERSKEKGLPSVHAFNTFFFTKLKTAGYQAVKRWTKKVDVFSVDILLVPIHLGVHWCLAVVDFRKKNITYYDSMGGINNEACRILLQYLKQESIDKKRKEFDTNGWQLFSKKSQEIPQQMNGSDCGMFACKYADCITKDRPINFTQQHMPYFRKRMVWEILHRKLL

[15] = molecular target: T6, Corticotropin-releasing factor receptor 2/Corticotropin-releasing factor-binding protein; experiment: activators of CRF receptor 2 with binding protein – uHTS hits, confirmation (AID 602473); type: functional; conditions: read-out: EC50_Mean
[16] = molecular target: T7, Sentrin-specific protease 1; experiment: potency of human SENP1 inhibitors, dose response, biochemical, kinetic FRET (AID 651697); type: functional; conditions: read-out: IC50_Mean
[17] = inhibitors of Bluetongue virus cytopathic effect, confirmation, arbovirus, BSR cells (AID 1250); type: functional;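 note: protection from viral cytopathic effect measured as cell viability by ATP luminescence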
Mucolipin-3 = Mucolipin-3 (Homo sapiens, UniProt Q8TDD5); experiment: Dose response cell-based high-throughput screening assay for agonists of the transient receptor potential channel ML3 (TRPML3). [Related pubchem assays: 1526, 1424, 1448 ]; type: functional
Chain of Mucolipin-3 (Q8TDD5 whole entry): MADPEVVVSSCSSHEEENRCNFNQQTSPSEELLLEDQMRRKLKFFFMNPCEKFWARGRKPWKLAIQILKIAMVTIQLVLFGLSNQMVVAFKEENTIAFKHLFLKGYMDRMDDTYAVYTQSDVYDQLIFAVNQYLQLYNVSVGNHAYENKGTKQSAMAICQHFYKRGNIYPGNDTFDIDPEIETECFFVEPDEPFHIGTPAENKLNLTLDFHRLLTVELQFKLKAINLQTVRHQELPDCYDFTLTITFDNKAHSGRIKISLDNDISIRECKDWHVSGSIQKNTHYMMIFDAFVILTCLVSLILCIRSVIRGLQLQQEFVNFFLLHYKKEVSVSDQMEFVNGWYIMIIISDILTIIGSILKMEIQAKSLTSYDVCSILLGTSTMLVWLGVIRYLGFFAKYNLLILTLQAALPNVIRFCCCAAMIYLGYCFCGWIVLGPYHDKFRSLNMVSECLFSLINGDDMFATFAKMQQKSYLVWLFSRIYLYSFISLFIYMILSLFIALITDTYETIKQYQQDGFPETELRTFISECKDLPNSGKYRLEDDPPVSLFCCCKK

Ion channel NompC = Ion channel NompC (Danio rerio, UniProt Q7T1G6); experiment: Fluorescence counterscreen assay for TRPML3 agonists: dose response cell-based high-throughput screening assay to identify agonists of the transient receptor potential channel N1 (TRPN1). [Related pubchem assays: 1526, 1424, 1448 ]; type: functional
Chain of Ion channel NompC (Q7T1G6 whole entry): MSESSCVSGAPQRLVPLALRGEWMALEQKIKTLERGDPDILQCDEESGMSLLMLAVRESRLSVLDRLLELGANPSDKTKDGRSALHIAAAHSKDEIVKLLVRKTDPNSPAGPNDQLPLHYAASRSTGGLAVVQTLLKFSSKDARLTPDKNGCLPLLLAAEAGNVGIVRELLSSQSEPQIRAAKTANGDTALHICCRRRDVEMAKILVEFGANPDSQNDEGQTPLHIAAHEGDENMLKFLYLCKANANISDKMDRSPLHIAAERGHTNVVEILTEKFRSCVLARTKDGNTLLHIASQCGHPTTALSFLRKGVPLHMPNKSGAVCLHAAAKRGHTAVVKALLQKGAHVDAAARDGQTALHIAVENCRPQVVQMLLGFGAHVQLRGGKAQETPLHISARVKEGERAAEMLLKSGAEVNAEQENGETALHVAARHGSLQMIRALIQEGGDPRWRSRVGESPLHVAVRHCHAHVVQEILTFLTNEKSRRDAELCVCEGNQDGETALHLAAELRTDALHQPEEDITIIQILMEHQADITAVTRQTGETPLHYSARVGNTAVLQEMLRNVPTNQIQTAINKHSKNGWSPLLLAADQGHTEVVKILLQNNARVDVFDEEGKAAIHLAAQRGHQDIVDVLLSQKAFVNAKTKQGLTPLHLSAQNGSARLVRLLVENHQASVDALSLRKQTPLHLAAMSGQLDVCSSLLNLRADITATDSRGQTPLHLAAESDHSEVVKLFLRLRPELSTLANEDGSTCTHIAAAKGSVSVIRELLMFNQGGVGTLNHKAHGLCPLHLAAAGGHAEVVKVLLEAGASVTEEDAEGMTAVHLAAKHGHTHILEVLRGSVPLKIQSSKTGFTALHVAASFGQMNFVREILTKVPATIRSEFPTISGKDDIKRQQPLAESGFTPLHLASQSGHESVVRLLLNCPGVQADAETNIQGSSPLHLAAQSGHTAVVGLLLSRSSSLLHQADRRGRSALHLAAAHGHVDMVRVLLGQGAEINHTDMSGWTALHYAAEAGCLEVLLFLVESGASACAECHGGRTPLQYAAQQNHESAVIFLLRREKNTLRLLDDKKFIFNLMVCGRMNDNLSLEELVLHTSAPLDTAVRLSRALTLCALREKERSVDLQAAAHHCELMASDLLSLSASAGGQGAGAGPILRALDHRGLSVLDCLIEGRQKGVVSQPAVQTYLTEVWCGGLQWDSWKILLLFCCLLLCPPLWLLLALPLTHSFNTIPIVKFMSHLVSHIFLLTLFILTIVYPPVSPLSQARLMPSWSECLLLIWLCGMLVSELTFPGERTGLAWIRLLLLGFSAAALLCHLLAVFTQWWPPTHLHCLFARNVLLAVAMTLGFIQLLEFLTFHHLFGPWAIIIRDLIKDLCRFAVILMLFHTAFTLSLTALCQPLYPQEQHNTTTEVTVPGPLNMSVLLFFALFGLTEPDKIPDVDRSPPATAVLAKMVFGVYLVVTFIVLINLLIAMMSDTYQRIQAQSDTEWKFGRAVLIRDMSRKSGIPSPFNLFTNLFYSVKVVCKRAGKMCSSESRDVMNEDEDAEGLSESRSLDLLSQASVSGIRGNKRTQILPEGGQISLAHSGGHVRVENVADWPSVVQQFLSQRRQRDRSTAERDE

COc1ccc(-c2nnc3sc(C(C)N4C(=O)c5ccccc5C4=O)nn23)cc1 (stereo unspecified)
IC50 [1]: 9.35 µM (active) | IC50 [2]: 6.02 µM (active)

Cc1ccc(C)c(SCc2noc(C(=O)NCC3CCCO3)c2C(=O)O)c1 (stereo unspecified)
IC50 [3]: > 35 µM (not active) | IC50 [4]: 26.4 µM (not active)

COc1ccc(NC(=O)/C(Cl)=C(/Cl)S(=O)(=O)Cc2ccccc2)cn1
IC50 [5]: 8.15 µM (active) | IC50 [6]: 0.829 µM (active) | EC50 (Protein RecA): 2.79 µM (active) | AC50 [7]: 2.44 µM (active) | IC50 [8]: 5.28 µM (not active) | AC50 [9]: 5.17 µM (active) | IC50 [10]: 1.76 µM (active) | IC50 [11]: 1.15 µM (active)

COc1ccccc1C1C2=C(N=c3s/c(=C/c4cccc(OCC(=O)O)c4)c(=O)n31)c1ccccc1CC2 (stereo unspecified)
IC50 [12]: > 47.1 µM (inactive) | IC50 [13]: 2.51 µM (active) | IC50 [14]: 25.4 µM (inactive) | EC50 [15]: > 53 µM (inactive) | IC50 [16]: 18.9 µM (active) | IC50 [17]: 21.3 µM (active)

Cc1cc(C)cc(N2C(=O)CSC2c2cccs2)c1 (stereo unspecified)
EC50 [15]: > 53 µM (inactive) | EC50 (Mucolipin-3): > 29.9 µM (not active) | EC50 (Ion channel NompC): > 29.9 µM (not active)
